From ChEMBL document CHEMBL4507258 (2021)

Tests used:
[1] = biological target: Vascular endothelial growth factor receptor 2 (Homo sapiens) (UniProt P35968); conditions: Compound concentration 1000.0 nM
[2] = biological target: Aurora kinase A (Homo sapiens) (UniProt O14965); conditions: Compound concentration 1000.0 nM
[3] = system: Tyrosine-protein kinase ABL1 (Homo sapiens), P00519 [Y253F]; conditions: Compound concentration 1000.0 nM
[4] = biological target: T1, Muscarinic acetylcholine receptor M2 (Homo sapiens) (UniProt P08172); conditions: Compound concentration 10.0 uM
T1 sequence (whole entry): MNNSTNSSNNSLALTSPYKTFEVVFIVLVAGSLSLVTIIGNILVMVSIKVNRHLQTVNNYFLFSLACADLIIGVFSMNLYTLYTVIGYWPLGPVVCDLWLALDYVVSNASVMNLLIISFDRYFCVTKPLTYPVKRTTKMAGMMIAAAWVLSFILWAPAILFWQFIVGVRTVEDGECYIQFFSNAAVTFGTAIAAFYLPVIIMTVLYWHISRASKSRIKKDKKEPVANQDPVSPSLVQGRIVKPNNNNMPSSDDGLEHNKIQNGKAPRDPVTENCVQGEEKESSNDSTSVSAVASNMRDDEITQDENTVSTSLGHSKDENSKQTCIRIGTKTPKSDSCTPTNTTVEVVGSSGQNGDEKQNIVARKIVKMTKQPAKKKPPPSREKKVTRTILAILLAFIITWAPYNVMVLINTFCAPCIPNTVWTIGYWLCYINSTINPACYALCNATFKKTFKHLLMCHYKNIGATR

[5] = system: Mast/stem cell growth factor receptor Kit (Homo sapiens), P10721 [L576P]; conditions: Compound concentration 1000.0 nM
[6] = biological target: Ephrin type-B receptor 4 (Homo sapiens) (UniProt P54760); conditions: Compound concentration 1000.0 nM
[7] = biological target: Non-receptor tyrosine-protein kinase TNK1 (Homo sapiens) (UniProt Q13470); conditions: Compound concentration 1000.0 nM
[8] = biological target: Interleukin-1 receptor-associated kinase 3 (Homo sapiens) (UniProt Q9Y616); conditions: Compound concentration 1000.0 nM
[9] = biological target: MAP/microtubule affinity-regulating kinase 3 (Homo sapiens) (UniProt P27448); conditions: Compound concentration 1000.0 nM
[10] = biological target: Protein kinase C delta type (Homo sapiens) (UniProt Q05655); conditions: Compound concentration 1000.0 nM
[11] = biological target: Tyrosine-protein kinase Lyn (Homo sapiens) (UniProt P07948); conditions: Compound concentration 1000.0 nM
[12] = biological target: cAMP-dependent protein kinase catalytic subunit PRKX (Homo sapiens) (UniProt P51817); conditions: Compound concentration 1000.0 nM
[13] = biological target: Casein kinase I isoform gamma-3 (Homo sapiens) (UniProt Q9Y6M4); conditions: Compound concentration 1000.0 nM
[14] = biological target: Mitogen-activated protein kinase 14 (Homo sapiens) (UniProt Q16539); conditions: Compound concentration 1000.0 nM
[15] = biological target: Mitogen-activated protein kinase kinase kinase 1 (Homo sapiens) (UniProt Q13233); conditions: Compound concentration 1000.0 nM
[16] = biological target: Activated CDC42 kinase 1 (Homo sapiens) (UniProt Q07912); conditions: Compound concentration 1000.0 nM
[17] = biological target: Homeodomain-interacting protein kinase 2 (Homo sapiens) (UniProt Q9H2X6); conditions: Compound concentration 1000.0 nM
[18] = biological target: Tyrosine-protein kinase Blk (Homo sapiens) (UniProt P51451); conditions: Compound concentration 1000.0 nM
[19] = biological target: Megakaryocyte-associated tyrosine-protein kinase (Homo sapiens) (UniProt P42679); conditions: Compound concentration 1000.0 nM
[20] = biological target: Serine/threonine-protein kinase Chk1 (Homo sapiens) (UniProt O14757); conditions: Compound concentration 1000.0 nM
[21] = biological target: Phosphatidylinositol 5-phosphate 4-kinase type-2 gamma (Homo sapiens) (UniProt Q8TBX8); conditions: Compound concentration 1000.0 nM
[22] = biological target: Serine/threonine-protein kinase haspin (Homo sapiens) (UniProt Q8TF76); conditions: Compound concentration 1000.0 nM
[23] = biological target: Serine/threonine-protein kinase PAK 4 (Homo sapiens) (UniProt O96013); conditions: Compound concentration 1000.0 nM
[24] = biological target: T2, D(4) dopamine receptor (Homo sapiens) (UniProt P21917); conditions: Compound concentration 10.0 uM
T2 sequence (whole entry): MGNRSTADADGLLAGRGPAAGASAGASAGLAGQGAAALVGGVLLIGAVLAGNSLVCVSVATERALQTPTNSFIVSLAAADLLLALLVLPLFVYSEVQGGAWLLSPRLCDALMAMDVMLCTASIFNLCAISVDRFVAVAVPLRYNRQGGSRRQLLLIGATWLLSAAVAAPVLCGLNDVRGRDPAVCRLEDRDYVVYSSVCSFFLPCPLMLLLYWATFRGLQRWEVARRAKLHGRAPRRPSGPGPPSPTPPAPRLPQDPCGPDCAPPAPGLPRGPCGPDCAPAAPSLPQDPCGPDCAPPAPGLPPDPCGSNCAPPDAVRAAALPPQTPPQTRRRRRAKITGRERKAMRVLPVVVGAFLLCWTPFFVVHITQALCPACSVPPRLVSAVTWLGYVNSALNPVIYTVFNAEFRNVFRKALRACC

[25] = biological target: Ribosomal protein S6 kinase alpha-3 (Homo sapiens) (UniProt P51812); conditions: Compound concentration 1000.0 nM
[26] = biological target: Phosphatidylinositol 4-phosphate 3-kinase C2 domain-containing subunit beta (Homo sapiens) (UniProt O00750); conditions: Compound concentration 1000.0 nM
[27] = biological target: Ephrin type-B receptor 1 (Homo sapiens) (UniProt P54762); conditions: Compound concentration 1000.0 nM
[28] = system: Tyrosine-protein kinase ABL1 (Homo sapiens), P00519 [Q252H]; conditions: Compound concentration 1000.0 nM
[29] = biological target: Mitogen-activated protein kinase 6 (Homo sapiens) (UniProt Q16659); conditions: Compound concentration 1000.0 nM
[30] = biological target: Phosphorylase b kinase gamma catalytic chain, skeletal muscle/heart isoform (Homo sapiens) (UniProt Q16816); conditions: Compound concentration 1000.0 nM
[31] = biological target: Mitogen-activated protein kinase kinase kinase kinase 4 (Homo sapiens) (UniProt O95819); conditions: Compound concentration 1000.0 nM
[32] = biological target: Phosphatidylinositol 4,5-bisphosphate 3-kinase catalytic subunit delta isoform (Homo sapiens) (UniProt O00329); conditions: Compound concentration 1000.0 nM
[33] = biological target: Serine/threonine-protein kinase 4 (Homo sapiens) (UniProt Q13043); conditions: Compound concentration 1000.0 nM

Casein kinase I isoform gamma-3 (Homo sapiens), sequence (Q9Y6M4 whole entry, looked up, canonical isoform): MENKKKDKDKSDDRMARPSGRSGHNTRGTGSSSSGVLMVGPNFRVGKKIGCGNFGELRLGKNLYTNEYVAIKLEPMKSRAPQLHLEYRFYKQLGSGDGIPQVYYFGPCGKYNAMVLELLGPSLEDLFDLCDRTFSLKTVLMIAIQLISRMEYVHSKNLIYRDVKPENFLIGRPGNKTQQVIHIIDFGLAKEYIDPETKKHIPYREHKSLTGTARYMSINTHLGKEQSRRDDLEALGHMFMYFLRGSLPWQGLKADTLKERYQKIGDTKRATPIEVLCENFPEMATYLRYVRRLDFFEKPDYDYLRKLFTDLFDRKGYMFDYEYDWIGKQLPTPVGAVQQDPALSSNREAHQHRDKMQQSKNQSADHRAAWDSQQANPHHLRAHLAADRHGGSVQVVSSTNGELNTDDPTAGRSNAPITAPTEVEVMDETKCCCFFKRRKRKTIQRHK
Megakaryocyte-associated tyrosine-protein kinase (Homo sapiens), sequence (P42679 whole entry): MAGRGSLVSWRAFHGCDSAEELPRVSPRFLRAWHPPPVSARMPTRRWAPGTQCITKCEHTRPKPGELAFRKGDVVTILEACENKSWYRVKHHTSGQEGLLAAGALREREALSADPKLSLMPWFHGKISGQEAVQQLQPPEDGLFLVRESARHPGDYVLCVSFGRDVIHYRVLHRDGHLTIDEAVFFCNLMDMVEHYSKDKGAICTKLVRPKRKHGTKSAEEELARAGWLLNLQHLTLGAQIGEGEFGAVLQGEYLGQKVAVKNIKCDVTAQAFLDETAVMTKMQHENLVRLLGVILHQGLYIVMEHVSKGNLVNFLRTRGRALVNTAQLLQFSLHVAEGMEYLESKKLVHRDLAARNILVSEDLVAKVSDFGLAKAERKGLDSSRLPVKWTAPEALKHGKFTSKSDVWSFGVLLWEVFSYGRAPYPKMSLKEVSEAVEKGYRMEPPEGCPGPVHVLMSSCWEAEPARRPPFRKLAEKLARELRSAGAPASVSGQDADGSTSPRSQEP
Phosphatidylinositol 5-phosphate 4-kinase type-2 gamma (Homo sapiens), sequence (Q8TBX8 whole entry): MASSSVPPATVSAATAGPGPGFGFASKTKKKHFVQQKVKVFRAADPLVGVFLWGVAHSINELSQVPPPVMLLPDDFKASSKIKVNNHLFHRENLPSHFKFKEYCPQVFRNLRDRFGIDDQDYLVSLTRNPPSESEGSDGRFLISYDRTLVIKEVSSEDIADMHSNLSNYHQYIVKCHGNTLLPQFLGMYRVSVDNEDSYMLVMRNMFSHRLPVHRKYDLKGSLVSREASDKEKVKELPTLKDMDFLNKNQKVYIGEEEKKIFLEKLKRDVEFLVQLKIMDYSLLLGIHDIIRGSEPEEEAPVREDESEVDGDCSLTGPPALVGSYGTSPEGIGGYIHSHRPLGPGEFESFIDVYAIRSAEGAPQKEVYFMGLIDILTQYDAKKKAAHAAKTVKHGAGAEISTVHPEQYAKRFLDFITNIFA
Homeodomain-interacting protein kinase 2 (Homo sapiens), sequence (Q9H2X6 whole entry, looked up): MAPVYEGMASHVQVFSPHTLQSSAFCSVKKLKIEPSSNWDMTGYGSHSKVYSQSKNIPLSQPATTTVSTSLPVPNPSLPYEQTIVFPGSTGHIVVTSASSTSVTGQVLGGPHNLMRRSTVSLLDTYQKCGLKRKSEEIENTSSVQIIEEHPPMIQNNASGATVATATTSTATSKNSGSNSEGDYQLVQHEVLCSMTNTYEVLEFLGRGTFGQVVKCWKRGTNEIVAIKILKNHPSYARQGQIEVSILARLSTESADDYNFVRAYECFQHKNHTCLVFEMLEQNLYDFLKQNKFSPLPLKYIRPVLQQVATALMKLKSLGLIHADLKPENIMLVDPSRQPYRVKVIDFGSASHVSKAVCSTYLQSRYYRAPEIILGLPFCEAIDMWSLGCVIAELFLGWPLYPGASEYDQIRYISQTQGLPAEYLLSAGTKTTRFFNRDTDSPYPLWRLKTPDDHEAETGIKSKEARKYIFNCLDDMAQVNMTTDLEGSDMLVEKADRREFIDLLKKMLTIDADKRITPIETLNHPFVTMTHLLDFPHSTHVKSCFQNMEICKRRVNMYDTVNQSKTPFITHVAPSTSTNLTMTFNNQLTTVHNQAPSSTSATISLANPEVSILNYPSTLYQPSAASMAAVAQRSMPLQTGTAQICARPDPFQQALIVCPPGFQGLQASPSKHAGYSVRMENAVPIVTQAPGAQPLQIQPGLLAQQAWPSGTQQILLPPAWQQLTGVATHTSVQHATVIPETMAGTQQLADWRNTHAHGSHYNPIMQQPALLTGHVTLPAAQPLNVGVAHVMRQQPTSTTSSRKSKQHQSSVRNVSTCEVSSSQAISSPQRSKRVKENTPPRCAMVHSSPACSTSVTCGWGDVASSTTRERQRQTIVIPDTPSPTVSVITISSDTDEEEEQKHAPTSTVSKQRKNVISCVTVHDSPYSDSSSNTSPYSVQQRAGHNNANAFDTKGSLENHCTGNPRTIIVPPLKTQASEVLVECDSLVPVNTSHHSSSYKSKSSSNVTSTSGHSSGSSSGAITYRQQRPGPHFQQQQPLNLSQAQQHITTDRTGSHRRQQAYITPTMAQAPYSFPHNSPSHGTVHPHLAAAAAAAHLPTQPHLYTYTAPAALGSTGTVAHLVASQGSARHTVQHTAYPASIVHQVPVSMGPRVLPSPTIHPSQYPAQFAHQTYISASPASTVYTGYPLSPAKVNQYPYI
Ribosomal protein S6 kinase alpha-3 (Homo sapiens), sequence (P51812 whole entry, the tested form may be a part): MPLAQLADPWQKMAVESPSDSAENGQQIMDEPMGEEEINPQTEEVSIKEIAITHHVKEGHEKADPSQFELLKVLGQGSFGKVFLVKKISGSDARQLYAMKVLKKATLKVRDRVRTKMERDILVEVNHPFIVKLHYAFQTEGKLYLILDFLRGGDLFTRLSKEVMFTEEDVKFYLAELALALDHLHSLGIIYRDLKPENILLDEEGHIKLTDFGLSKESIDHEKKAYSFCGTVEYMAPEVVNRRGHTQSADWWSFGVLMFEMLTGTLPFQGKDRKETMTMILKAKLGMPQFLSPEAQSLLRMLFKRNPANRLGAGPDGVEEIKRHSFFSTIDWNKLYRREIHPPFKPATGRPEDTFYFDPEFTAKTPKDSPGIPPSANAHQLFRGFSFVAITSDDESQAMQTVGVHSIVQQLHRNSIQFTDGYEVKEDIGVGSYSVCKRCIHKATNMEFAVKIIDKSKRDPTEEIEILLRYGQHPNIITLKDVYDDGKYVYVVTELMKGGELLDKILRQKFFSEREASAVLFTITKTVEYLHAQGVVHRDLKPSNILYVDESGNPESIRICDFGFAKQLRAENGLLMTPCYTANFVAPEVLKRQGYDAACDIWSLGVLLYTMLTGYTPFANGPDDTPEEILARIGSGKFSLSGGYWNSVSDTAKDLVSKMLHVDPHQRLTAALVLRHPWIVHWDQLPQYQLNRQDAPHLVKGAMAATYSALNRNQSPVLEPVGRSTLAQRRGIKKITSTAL
Tyrosine-protein kinase Lyn (Homo sapiens), sequence (P07948 2-512 limits assumed): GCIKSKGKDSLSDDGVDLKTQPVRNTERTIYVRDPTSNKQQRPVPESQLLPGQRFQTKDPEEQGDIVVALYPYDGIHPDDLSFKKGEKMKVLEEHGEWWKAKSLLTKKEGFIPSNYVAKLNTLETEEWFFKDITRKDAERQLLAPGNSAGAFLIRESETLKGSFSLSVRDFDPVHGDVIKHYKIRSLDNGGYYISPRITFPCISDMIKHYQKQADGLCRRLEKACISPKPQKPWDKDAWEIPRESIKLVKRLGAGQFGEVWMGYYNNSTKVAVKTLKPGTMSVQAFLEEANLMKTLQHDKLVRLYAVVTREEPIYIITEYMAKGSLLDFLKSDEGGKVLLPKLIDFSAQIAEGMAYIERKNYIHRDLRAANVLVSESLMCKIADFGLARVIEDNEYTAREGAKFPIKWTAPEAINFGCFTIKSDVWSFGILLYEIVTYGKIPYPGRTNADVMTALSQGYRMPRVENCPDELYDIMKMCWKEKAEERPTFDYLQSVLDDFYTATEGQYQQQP
Mitogen-activated protein kinase kinase kinase kinase 4 (Homo sapiens), sequence (O95819 2-1239 limits assumed): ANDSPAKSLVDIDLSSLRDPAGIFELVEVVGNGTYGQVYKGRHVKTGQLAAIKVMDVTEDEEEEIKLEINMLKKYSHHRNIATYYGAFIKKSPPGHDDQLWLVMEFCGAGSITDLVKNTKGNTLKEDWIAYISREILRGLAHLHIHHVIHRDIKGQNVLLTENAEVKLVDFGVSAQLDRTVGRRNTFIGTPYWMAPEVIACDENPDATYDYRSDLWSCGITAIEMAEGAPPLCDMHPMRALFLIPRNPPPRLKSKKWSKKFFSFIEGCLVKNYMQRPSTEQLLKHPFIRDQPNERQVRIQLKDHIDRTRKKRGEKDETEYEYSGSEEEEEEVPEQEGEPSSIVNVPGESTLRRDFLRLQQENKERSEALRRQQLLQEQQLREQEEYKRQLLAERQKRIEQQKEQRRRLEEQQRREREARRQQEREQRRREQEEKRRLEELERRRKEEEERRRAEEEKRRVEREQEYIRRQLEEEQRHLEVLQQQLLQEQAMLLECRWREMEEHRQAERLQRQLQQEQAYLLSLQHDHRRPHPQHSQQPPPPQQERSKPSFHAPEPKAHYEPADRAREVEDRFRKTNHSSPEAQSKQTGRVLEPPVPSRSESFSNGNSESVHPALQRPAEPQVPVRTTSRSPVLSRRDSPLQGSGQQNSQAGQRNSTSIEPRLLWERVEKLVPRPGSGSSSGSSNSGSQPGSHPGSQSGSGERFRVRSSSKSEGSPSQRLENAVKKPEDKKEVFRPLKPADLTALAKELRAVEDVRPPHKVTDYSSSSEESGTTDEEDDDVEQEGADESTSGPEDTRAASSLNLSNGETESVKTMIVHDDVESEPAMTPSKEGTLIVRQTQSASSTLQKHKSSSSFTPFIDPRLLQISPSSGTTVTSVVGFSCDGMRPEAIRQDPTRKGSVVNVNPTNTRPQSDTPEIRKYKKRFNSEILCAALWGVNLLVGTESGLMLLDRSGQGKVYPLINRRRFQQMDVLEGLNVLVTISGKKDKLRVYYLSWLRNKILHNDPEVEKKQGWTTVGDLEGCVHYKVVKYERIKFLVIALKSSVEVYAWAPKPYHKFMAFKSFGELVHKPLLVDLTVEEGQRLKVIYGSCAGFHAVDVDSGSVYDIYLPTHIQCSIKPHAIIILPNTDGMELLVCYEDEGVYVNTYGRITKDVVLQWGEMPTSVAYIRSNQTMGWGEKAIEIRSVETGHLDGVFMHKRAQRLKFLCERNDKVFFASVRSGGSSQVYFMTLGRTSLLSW

| SMILES | residual activity [1] [%] | residual activity [2] [%] | residual activity [3] [%] | inhibition [4] [%] | residual activity [5] [%] | residual activity [6] [%] | residual activity [7] [%] | residual activity [8] [%] | residual activity [9] [%] | residual activity [10] [%] | residual activity [11] [%] | residual activity [12] [%] | residual activity [13] [%] | residual activity [14] [%] | residual activity [15] [%] | residual activity [16] [%] | residual activity [17] [%] | residual activity [18] [%] | residual activity [19] [%] | residual activity [20] [%] | further results |
| --- | --- | --- | --- | --- | --- | --- | --- | --- | --- | --- | --- | --- | --- | --- | --- | --- | --- | --- | --- | --- | --- |
| CCCCN(CCCC)C(=O)CN1C[C@@H](c2cc(OC)c3c(c2)OCO3)[C@H](C(=O)O)[C@H]1CC(C)(C)CCC [A-545] | 88.1 | 90.2 | 100 | 3.71 | 100 | 98.5 | 100 | 85 | 93.7 | 98.2 | 75.1 | 87.7 | 100 | 81.3 | 100 | 91.6 | 97.1 | 100 | 100 | 100 | residual activity [21]: 80.7%; residual activity [22]: 100%; residual activity [23]: 90.2%; inhibition [24]: 87.1%; residual activity [25]: 99.2%; residual activity [26]: 73.6%; residual activity [27]: 100%; residual activity [28]: 100%; residual activity [29]: 96.5%; residual activity [30]: 97.5%; residual activity [31]: 88.9%; residual activity [32]: 87%; residual activity [33]: 94.4% |
| CCCCN(CCCC)C(=O)CN1C[C@H](c2cc(OC)c3c(c2)OCO3)[C@@H](C(=O)O)[C@@H]1CC(C)(C)CCC [ABT-546] | 88.7 | 90.3 | 86.7 | -1.89 | 100 | 100 | 100 | 100 | 98.7 | 100 | 100 | 100 | 100 | 100 | 100 | 100 | 82.3 | 95.8 | 62.8 | 100 | residual activity [21]: 100%; residual activity [22]: 75.8%; residual activity [23]: 100%; inhibition [24]: 21.7%; residual activity [25]: 100%; residual activity [26]: 65.9%; residual activity [27]: 100%; residual activity [28]: 100%; residual activity [29]: 100%; residual activity [30]: 100%; residual activity [31]: 100%; residual activity [32]: 100%; residual activity [33]: 100% |
